According to patent US20140350050A1, “PYRIDINE COMPOUNDS AS INHIBITORS OF KINASE” (TELIGENE LTD., priority 2011, published 2014):
Like-named read-outs stand apart in the source and are kept apart here.

How the values were obtained:
ALK kinase = ALK kinase (Homo sapiens, UniProt Q9UM73); assay: ALK kinase assay; type: biochemical
Experimental: An in vitro assay which determines the ability of a test compound to inhibit ALK kinase. a) kinase-tagged T7 phage strains were prepared in an E. coli host derived from the BL21 strain. E. coli were grown to log-phase and infected with T7 phage and incubated with shaking at 32° C. until lysis. The lysates were centrifuged and filtered to remove cell debris. The remaining kinases were produced in HEK-293 cells and subsequently tagged with DNA for qPCR detection. […] The liganded beads were blocked with excess biotin and washed with blocking buffer (SeaBlock (Pierce), 1% BSA, 0.05% Tween 20, 1 mM DTT) to remove unbound ligand and to reduce non-specific binding. […] All reactions were performed in polystyrene 96-well plates in a final volume of 0.135 ml. […] The kinase concentration in the eluates was measured by qPCR. […]
b) An alternative method to conduct the kinase assay with the following condition and procedure: Reagent: Base Reaction buffer; 20 mM Hepes (pH 7.5), 10 mM MgCl2, 1 mM EGTA, 0.02% Brij35, 0.02 mg/ml BSA, 0.1 mM Na3VO4, 2 mM DTT, 1% DMSO.
1. Preparing indicated substrate in freshly prepared Base Reaction Buffer
2. Delivering any required cofactors to the substrate solution above
3. Delivering indicated kinase into the substrate solution and gently mix
4. Delivering compounds in DMSO into the kinase reaction mixture
5. Delivering ^33P-ATP (specific activity 0.01 μCi/μl final) into the reaction mixture to initiate the reaction.
6. Incubating kinase reaction for 120 min. at room temperature
7. Reactions are spotted onto P81 ion exchange paper (Whatman #3698-915)
8. Washing filters extensively in 0.75% Phosphoric acid. […]
c) An alternative method to conduct the kinase assay with the following condition and procedure: The assay was performed using Kinase-Glo Plus luminescence kinase assay kit (Promega). It measures kinase activity by quantitating the amount of ATP remaining in solution following a kinase reaction. The luminescent signal from the assay is correlated with the amount of ATP present and is inversely correlated with the amount of kinase activity.
The compound were diluted in 10% DMSO and 5 μl of the dilution was added to a 50 μl reaction so that the final concentration of DMSO is 1% in all of reactions. All of the enzymatic reactions were conducted at 30° C. for 40 minutes. The 50 μl reaction mixture contains 40 mM Tris, pH 7.4, 10 mM MgCl2, 0.1 mg/ml BSA, 1 mM DTT, 0.2 mg/ml substrate peptide, 10 μM ATP and ALK (Table 2.3.1). After the enzymatic reaction, 50 μl of Kinase-Glo Plus Luminescence kinase assay solution (Promega) was added to each reaction and incubate the plate for 5 minutes at room temperature. Luminescence signal was measured using a BioTek Synergy 2 microplate reader. ALK activity assays were performed in duplicate at each concentration. The luminescence data were analyzed using the computer software, Graphpad Prism. The difference between luminescence intensities in the absence of ALK (Lut) and in the presence of ALK (Luc) was defined as 100% activity (Lut−Luc). Using luminescence signal (Lu) in the presence of the compound, % activity was calculated as % activity={(Lut−Lu)/(Lut−Luc)}×100%, where Lu=the luminescence intensity in the presence of the compound (all percent activities below zero were shown zero in the table). The values of % activity versus a series of compound concentrations were then plotted using non-linear regression analysis of Sigmoidal dose-response curve generated with the equation Y=B+(T−B)/1+10^((Log EC50−X)×Hill Slope), where Y=percent activity, B=minimum percent activity, T=maximum percent activity, X=logarithm of compound and Hill Slope=slope factor or Hill coefficient. The IC50 value was determined by the concentration causing a half-maximal percent activity.

[1] = molecular target: T1, BAF3-EML4-ALK stable cell line (Homo sapiens, UniProt Q9UM73); assay: BAF3-EML4-ALK cell assay (MTT cell proliferation); type: cell-based; conditions: 72 hours, read-out: BAF3-EML4-ALK Cell (IC50 grading)
T1 construct: fused on or other part: Q9HC35 (Echinoderm microtubule-associated protein-like 4)
T1 sequence (Q9UM73 whole entry, change not shown, the tested form may be a part): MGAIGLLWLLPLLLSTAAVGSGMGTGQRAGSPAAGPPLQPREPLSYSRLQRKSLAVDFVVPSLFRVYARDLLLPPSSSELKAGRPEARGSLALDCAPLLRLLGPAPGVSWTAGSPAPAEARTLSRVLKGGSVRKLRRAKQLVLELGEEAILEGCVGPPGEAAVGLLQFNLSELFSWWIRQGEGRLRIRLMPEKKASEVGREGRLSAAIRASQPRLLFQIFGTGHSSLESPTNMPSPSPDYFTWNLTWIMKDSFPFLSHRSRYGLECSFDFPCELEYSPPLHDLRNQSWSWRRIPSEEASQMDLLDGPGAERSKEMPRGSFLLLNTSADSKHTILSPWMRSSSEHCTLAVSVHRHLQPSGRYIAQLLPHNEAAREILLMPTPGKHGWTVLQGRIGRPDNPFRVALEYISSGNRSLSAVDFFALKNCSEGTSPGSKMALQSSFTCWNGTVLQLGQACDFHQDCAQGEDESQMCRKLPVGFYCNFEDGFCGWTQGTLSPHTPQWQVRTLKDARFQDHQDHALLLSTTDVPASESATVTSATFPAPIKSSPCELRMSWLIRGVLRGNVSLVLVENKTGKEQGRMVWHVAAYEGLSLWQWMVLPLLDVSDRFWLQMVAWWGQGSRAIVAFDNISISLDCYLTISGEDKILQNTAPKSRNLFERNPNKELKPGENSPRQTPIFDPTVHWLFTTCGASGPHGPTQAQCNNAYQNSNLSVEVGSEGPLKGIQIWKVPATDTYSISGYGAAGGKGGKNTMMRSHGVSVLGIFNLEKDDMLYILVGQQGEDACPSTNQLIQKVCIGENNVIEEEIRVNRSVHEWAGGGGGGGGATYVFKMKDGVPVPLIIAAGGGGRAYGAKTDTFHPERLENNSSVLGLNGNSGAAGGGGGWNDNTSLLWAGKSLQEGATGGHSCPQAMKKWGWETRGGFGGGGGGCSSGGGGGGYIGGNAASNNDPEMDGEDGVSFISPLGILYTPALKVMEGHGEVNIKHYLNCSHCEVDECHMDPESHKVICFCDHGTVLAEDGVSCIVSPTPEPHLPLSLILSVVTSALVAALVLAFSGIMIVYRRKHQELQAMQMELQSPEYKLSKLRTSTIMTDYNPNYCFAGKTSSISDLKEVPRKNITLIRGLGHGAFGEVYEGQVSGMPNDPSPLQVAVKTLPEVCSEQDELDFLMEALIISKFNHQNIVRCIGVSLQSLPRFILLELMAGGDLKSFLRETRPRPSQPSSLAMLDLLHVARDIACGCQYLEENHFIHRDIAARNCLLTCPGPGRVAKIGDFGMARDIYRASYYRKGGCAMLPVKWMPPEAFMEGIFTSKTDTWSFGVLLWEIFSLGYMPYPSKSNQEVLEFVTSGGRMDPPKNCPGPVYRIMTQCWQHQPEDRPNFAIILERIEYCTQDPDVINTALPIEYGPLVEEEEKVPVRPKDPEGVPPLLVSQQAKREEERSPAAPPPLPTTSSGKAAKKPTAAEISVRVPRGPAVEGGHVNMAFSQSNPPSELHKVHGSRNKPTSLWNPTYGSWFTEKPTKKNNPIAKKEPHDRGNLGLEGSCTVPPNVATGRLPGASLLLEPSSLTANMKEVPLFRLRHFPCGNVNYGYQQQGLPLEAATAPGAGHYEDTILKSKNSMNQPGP
Experimental: BAF3-EML4-ALK Cell Assay:
A method of establishing BAF3-EML4-ALK stable cell line: Transfer 5×10^6 BAF3 cells to a new tube, pellet the cells, and remove PBS by aspiration.; Resuspend the cells in 1 ml electroporation buffer, this provides 5×10^6 of cells; Transfer 200 μl of cell suspension to EP tube, add 5 ug DNA, flip and place it on ice for 10 min; Pipet the 200 μl cell suspension into 2 mm electroporation cuvette; Place the cuvette into shockpod, close the lid, and press the PULSE button; Set parameters: Expentional decay pulse: VOL=200 V; CAP=900 uF, RES=1000Ω; Transfer all cells from electroporation cuvette to 6 well plate, adding 2 ml DMEMF12 containing 5 ng/ml IL3, 24 h later, replace the medium with DMEM F12 containing 2 μg/ml blasticidin S and 5 ng/ml IL3, maintain for 3 days; change the medium with DMEM F12 containing 2 ug/ml blasticidin S and 2.5 ng/ml IL3, maintain 3 days; change the medium with DMEM F12 containing 2 ug/Ml blasticidin S, maintain to culture.
MTT Cell proliferation assay: 5×10^3 per well cell with 100 μl medium was seeded in 96-well plate; 24 hours later, 100 μl fresh medium with various concentration of compounds; After the cells were treated by compounds for 72 hours, add 20 μl MTT (5 mg/ml) into each wells; The plate is incubated at 37° C. for 4 hours; Centrifuge the plate at 800 g for 10 mins, Aspirated the medium, add 150 μl DMSO into each well. Shake plates gently for 10 mins, Measure the absorbance at 570 nm on plate reader; IR=(WC−WT)/WC.

[2] = tested on: EML4-ALK-BAF3 cell line xenograft; type: in vivo; conditions: 40 mg/kg oral gavage once daily
Description: A representative protocol for the in vivo experiment is as followed to establish the subcutaneous EML4-ALK-BAF3 cell line xenograft model in nude mice and to evaluate the in vivo therapeutic efficacy of the compounds: Animals: Male Balb/c nude mice (6˜8 weeks old) were obtained from SLAC Laboratory Animal, Shanghai, China. Animals were maintained under SPF conditions in sterile filter top cages and housed on HEPA-filtered ventilated racks. Animals received sterile rodent chow and water ad libitum. Cell line: BAF3-EML4-ALK stable cell line, the BAF3 cell which could expressed fusion oncogene EML4-ALK. S.c. Xenograft Models in Athymic Mice: Cells for implantation into athymic mice were harvested and pelleted by centrifugation at 1200 r/min for 5 min. Cells were washed once and resuspended in sterile PBS buffer with 5×10^6 in 200 μl. Then cells were implanted s.c. into the right scapular region of each mouse and allowed to grow to 200˜300 mm^3 before the administration of compound. Preparation of the Dose Formulation: each compound was suspensioned in 0.5% CMC-Na. Randomization: When tumor volumes approach 200˜300 mm^3, the mice will be randomized into 5 groups according to the tumor volume. The day will be denoted as D1 and the treatments will be started at this day. Administered: Dose will be administered with oral gavage needle once daily for number of days. Treatment of compounds administered in 0.5% CMC-Na by p.o. gavage was initiated when tumors were 200˜300 mm^3 in volume. Observations: After inoculation, the animals will be checked daily for morbidity and mortality. At the time of routine monitoring, the animals will be checked for any effects of tumor growth and treatments on normal behavior such as mobility, body weight gain/loss (body weights will be measured twice weekly or every other day), eye/hair matting and any other abnormal effect. Death and observed clinical signs will be recorded on the basis of the numbers of animals within each subset. Tumor Size Measurements: Tumor volume was determined by measurement with electronic vernier calipers every 3 days and tumor volume was calculated as the product of its length×width^2×0.5. Effect studies: Tumor volume was expressed on indicated days as the mean tumor volume ±SD. […] Significant differences between the treated versus the control groups (p<0.05) were determined using t test. At study endpoint, after blood collection, mice were practiced euthanasia by cervical dislocation, the tumor tissue was collected first, then abdominal cavity was cut open, liver and spleen were excised, then weight after the gallblader was removed respectively. Organ weight and Organ/body weight ratios between the treated versus the control groups were compared. Ratios was calculated as follows: Ratios=Organ weight/(body weight-tumor weight). Both organ weight and Organ/body weight ratios were also expressed as mean±SD, and significant differences between the treated versus the control groups (p<0.05) were determined using t test.

[3] = ALK kinase assay, read-out: ALK (IC50 grading)

Chain of ALK kinase (Q9UM73 19-1620): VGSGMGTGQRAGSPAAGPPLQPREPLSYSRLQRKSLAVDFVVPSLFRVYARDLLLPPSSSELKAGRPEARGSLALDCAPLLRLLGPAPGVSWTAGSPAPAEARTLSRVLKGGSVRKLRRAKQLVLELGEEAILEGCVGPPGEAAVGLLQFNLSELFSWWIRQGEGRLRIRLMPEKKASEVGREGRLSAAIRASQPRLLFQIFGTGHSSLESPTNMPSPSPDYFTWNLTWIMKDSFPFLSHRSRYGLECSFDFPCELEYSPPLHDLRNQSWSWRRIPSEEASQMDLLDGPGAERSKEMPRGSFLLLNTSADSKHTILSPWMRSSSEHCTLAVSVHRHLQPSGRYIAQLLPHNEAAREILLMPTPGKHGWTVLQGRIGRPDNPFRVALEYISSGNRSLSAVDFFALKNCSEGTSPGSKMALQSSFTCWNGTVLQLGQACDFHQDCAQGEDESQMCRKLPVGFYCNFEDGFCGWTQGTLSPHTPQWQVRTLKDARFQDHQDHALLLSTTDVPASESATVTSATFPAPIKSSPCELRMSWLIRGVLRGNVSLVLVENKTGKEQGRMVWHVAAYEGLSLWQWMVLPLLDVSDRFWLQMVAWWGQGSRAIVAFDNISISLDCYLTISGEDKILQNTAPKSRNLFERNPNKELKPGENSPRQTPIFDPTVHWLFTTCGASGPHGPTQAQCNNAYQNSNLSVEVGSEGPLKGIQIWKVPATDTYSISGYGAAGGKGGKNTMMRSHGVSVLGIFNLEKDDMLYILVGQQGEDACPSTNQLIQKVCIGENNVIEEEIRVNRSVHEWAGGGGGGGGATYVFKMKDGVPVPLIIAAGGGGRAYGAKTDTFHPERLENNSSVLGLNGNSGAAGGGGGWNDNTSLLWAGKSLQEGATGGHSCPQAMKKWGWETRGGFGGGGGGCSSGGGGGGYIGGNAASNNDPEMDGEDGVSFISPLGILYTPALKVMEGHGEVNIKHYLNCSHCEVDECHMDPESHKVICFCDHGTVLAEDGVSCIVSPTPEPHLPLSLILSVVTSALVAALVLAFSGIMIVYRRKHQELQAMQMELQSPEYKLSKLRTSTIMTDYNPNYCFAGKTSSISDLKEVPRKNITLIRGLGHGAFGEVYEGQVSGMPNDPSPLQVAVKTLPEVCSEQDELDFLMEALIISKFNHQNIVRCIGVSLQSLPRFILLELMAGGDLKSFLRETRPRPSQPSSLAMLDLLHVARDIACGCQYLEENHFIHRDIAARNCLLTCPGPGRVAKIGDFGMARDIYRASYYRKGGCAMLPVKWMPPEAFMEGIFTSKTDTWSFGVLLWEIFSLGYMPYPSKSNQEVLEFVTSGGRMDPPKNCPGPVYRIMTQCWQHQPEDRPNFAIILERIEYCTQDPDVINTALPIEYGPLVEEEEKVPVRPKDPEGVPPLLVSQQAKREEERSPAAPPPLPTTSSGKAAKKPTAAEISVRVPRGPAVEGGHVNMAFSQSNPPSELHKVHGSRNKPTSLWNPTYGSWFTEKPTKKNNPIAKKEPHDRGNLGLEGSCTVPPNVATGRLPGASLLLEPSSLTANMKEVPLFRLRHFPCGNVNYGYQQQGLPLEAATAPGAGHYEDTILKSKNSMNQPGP

SMILES | IC50 (ALK kinase; [3]) | GI50 [1] | liver weight at the end of the study ([2]; control group 1.523) | Tumor growth inhibition (TGI, %) ([2]; Table B, day 4) | Tumor growth inhibition (TGI, %) ([2]; Table B, day 7) | Tumor growth inhibition (TGI, %) ([2]; Table B, day 9) | IC50 (ALK kinase; read-out: IC50 in the ALK kinase assay) | Tumor growth inhibition (TGI, %) ([2]; Table C, day 2) | Tumor growth inhibition (TGI, %) ([2]; Table C, day 5) | Tumor growth inhibition (TGI, %) ([2]; Table C, day 8) | Tumor growth inhibition (TGI, %) ([2]; Table C, day 11) | Tumor growth inhibition (TGI, %) ([2]; Table C, day 14)
CC(=O)Nc1ncc(-c2cnn(C3CCNCC3)c2)cc1O[C@H](C)c1c(Cl)ccc(F)c1Cl [Compound 18, (R)—N-(3-(1-(2,6-dichloro-3-fluorophenyl)ethoxy)-5-(1-(piperidin-4-yl)-1H-pyrazol-4-yl)pyridin-2-yl)acetamide] | ≤ 0.1 µM | ≤ 0.1 µM | 1.318 gram | 24.11% | 38.91% | 39.08% | – | – | – | – | – | –
[2H]C([2H])([2H])N1CCC(n2cc(-c3cnc(N)c(O[C@H](C)c4c(Cl)ccc(F)c4Cl)c3)cn2)CC1 [Compound 20, (R)-3-(1-(2,6-dichloro-3-fluorophenyl)ethoxy)-5-(1-(1-d3-methylpiperidin-4-yl)-1H-pyrazol-4-yl)pyridin-2-amine] | ≤ 0.1 µM | ≤ 0.1 µM | – | – | – | – | 0.0026 µM | 29.80% | 58.20% | 71.73% | 90.29% | 92.09%
